Source: the supplement of paper PMC10307832

Assays:
Test in all cases: relative viability (nuclei count vs DMSO), 5 days (fraction); higher = more cells survive
COR-L23 = tested on: COR-L23
How it was run: (§1)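 After 5 days of treatment, lung cancer cells in 1536-well plates were fixed and stained in a single step (final 0.05% Triton X-100, 1% formaldehyde, 1 ug/ml Hoechst) and their nuclei counted on 4× images. Treatment had been applied by pin tool the day after seeding as one drug alone or as a fixed anchor-drug dose with five library-drug doses (not always all listed) in √10 steps. Relative viability is the nuclei count of treated wells divided by that of vehicle wells, and values are medians of duplicate plates.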

NCI-H1395 = tested on: NCI-H1395
How it was run: as §1

NCI-H1793 = tested on: NCI-H1793
How it was run: as §1

NCI-H358 = tested on: NCI-H358
How it was run: as §1

NCI-H23 = tested on: NCI-H23
How it was run: as §1

HCC-366 = tested on: HCC-366
How it was run: as §1

SK-LU-1 = tested on: SK-LU-1
How it was run: as §1

HARA = tested on: HARA
How it was run: as §1

NCI-H2023 = tested on: NCI-H2023
How it was run: as §1

NCI-H1993 = tested on: NCI-H1993
How it was run: as §1

EMC-BAC-2 = tested on: EMC-BAC-2
How it was run: as §1

HOP-62 = tested on: HOP-62
How it was run: as §1

HCC-78 = tested on: HCC-78
How it was run: as §1

NCI-H2405 = tested on: NCI-H2405
How it was run: as §1

NCI-H1944 = tested on: NCI-H1944
How it was run: as §1

HCC-15 = tested on: HCC-15
How it was run: as §1

NCI-H838 = tested on: NCI-H838
How it was run: as §1

NCI-H2228 = tested on: NCI-H2228
How it was run: as §1

NCI-H2126 = tested on: NCI-H2126
How it was run: as §1

ABC-1 = tested on: ABC-1
How it was run: as §1

LC-2-ad = tested on: LC-2-ad
How it was run: as §1

CC(=O)O[C@@]12CO[C@@H]1C[C@H](O)[C@@]1(C)C(=O)[C@H](O)C3=C(C)[C@@H](OC(=O)[C@H](O)[C@@H](NC(=O)OC(C)(C)C)c4ccccc4)C[C@@](O)([C@@H](OC(=O)c4ccccc4)[C@H]21)C3(C)C [Docetaxel] + Cc1nc(NC(=O)N2CCC[C@H]2C(N)=O)sc1-c1ccnc(C(C)(C)C(F)(F)F)c1 [Alpelisib] (partner 2 µM)
relative viability (COR-L23; first compound 0.0002 µM): 0.65
relative viability (COR-L23; first compound 0.000632 µM): 0.718
relative viability (COR-L23; first compound 0.002 µM): 0.261
relative viability (COR-L23; first compound 0.006325 µM): 0.0995
relative viability (COR-L23; first compound 0.02 µM): 0.0707
relative viability (NCI-H1395; first compound 0.0002 µM): 1
relative viability (NCI-H1395; first compound 0.000632 µM): 1.02
relative viability (NCI-H1395; first compound 0.002 µM): 1.35
relative viability (NCI-H1395; first compound 0.006325 µM): 0.638
relative viability (NCI-H1395; first compound 0.02 µM): 0.307
relative viability (NCI-H1793; first compound 0.0002 µM): 0.796
relative viability (NCI-H1793; first compound 0.000632 µM): 0.642
relative viability (NCI-H1793; first compound 0.002 µM): 0.41
relative viability (NCI-H1793; first compound 0.006325 µM): 0.309
relative viability (NCI-H1793; first compound 0.02 µM): 0.222
relative viability (NCI-H358; first compound 0.0002 µM): 0.786
relative viability (NCI-H358; first compound 0.000632 µM): 0.361
relative viability (NCI-H358; first compound 0.002 µM): 0.267
relative viability (NCI-H358; first compound 0.02 µM): 0.111
relative viability (NCI-H23; first compound 0.0002 µM): 0.612
relative viability (NCI-H23; first compound 0.000632 µM): 0.512
relative viability (NCI-H23; first compound 0.002 µM): 0.406
relative viability (NCI-H23; first compound 0.006325 µM): 0.209
relative viability (NCI-H23; first compound 0.02 µM): 0.0958
relative viability (HCC-366; first compound 0.0002 µM): 0.331
relative viability (HCC-366; first compound 0.000632 µM): 0.311
relative viability (HCC-366; first compound 0.002 µM): 0.0519
relative viability (HCC-366; first compound 0.006325 µM): 0.0149
relative viability (HCC-366; first compound 0.02 µM): 0.0109
relative viability (SK-LU-1; first compound 0.0002 µM): 0.766
relative viability (SK-LU-1; first compound 0.000632 µM): 0.467
relative viability (SK-LU-1; first compound 0.002 µM): 0.495
relative viability (SK-LU-1; first compound 0.006325 µM): 0.26
relative viability (SK-LU-1; first compound 0.02 µM): 0.228
relative viability (HARA; first compound 0.0002 µM): 0.778
relative viability (HARA; first compound 0.000632 µM): 0.525
relative viability (HARA; first compound 0.002 µM): 0.282
relative viability (HARA; first compound 0.006325 µM): 0.114
relative viability (HARA; first compound 0.02 µM): 0.0727
relative viability (NCI-H2023; first compound 0.0002 µM): 0.49
relative viability (NCI-H2023; first compound 0.000632 µM): 0.553
relative viability (NCI-H2023; first compound 0.002 µM): 0.128
relative viability (NCI-H2023; first compound 0.006325 µM): 0.137
relative viability (NCI-H2023; first compound 0.02 µM): 0.0735
relative viability (NCI-H1993; first compound 0.0002 µM): 0.727
relative viability (NCI-H1993; first compound 0.000632 µM): 0.62
relative viability (NCI-H1993; first compound 0.002 µM): 0.741
relative viability (NCI-H1993; first compound 0.006325 µM): 0.525
relative viability (NCI-H1993; first compound 0.02 µM): 0.454
relative viability (EMC-BAC-2; first compound 0.0002 µM): 0.694
relative viability (EMC-BAC-2; first compound 0.000632 µM): 0.626
relative viability (EMC-BAC-2; first compound 0.002 µM): 0.385
relative viability (EMC-BAC-2; first compound 0.006325 µM): 0.246
relative viability (EMC-BAC-2; first compound 0.02 µM): 0.154
relative viability (HOP-62; first compound 0.0002 µM): 0.899
relative viability (HOP-62; first compound 0.000632 µM): 0.526
relative viability (HCC-78; first compound 0.0002 µM): 0.338
relative viability (HCC-78; first compound 0.000632 µM): 0.279
relative viability (HCC-78; first compound 0.002 µM): 0.255
relative viability (HCC-78; first compound 0.006325 µM): 0.24
relative viability (HCC-78; first compound 0.02 µM): 0.175
relative viability (NCI-H2405; first compound 0.0002 µM): 0.894
relative viability (NCI-H2405; first compound 0.000632 µM): 0.677
relative viability (NCI-H2405; first compound 0.002 µM): 0.467
relative viability (NCI-H2405; first compound 0.006325 µM): 0.448
relative viability (NCI-H2405; first compound 0.02 µM): 0.288
relative viability (NCI-H1944; first compound 0.0002 µM): 0.751
relative viability (NCI-H1944; first compound 0.000632 µM): 0.761
relative viability (NCI-H1944; first compound 0.002 µM): 0.728
relative viability (NCI-H1944; first compound 0.006325 µM): 0.259
relative viability (NCI-H1944; first compound 0.02 µM): 0.122
relative viability (HCC-15; first compound 0.0002 µM): 0.805
relative viability (HCC-15; first compound 0.000632 µM): 0.467
relative viability (HCC-15; first compound 0.002 µM): 0.196
relative viability (HCC-15; first compound 0.006325 µM): 0.208
relative viability (HCC-15; first compound 0.02 µM): 0.118
relative viability (NCI-H838; first compound 0.0002 µM): 0.978
relative viability (NCI-H838; first compound 0.000632 µM): 0.974
relative viability (NCI-H838; first compound 0.002 µM): 0.286
relative viability (NCI-H838; first compound 0.006325 µM): 0.194
relative viability (NCI-H838; first compound 0.02 µM): 0.157
relative viability (NCI-H2228; first compound 0.0002 µM): 0.329
relative viability (NCI-H2228; first compound 0.000632 µM): 0.243
relative viability (NCI-H2228; first compound 0.002 µM): 0.232
relative viability (NCI-H2228; first compound 0.006325 µM): 0.151
relative viability (NCI-H2228; first compound 0.02 µM): 0.118
relative viability (NCI-H2126; first compound 0.0002 µM): 0.781
relative viability (NCI-H2126; first compound 0.000632 µM): 0.753
relative viability (NCI-H2126; first compound 0.002 µM): 0.541
relative viability (NCI-H2126; first compound 0.006325 µM): 0.321
relative viability (NCI-H2126; first compound 0.02 µM): 0.231
relative viability (ABC-1; first compound 0.0002 µM): 0.826
relative viability (ABC-1; first compound 0.000632 µM): 1.07
relative viability (ABC-1; first compound 0.002 µM): 0.493
relative viability (ABC-1; first compound 0.006325 µM): 0.464
relative viability (ABC-1; first compound 0.02 µM): 0.337
relative viability (LC-2-ad; first compound 0.0002 µM): 0.538
relative viability (LC-2-ad; first compound 0.000632 µM): 0.174
relative viability (LC-2-ad; first compound 0.002 µM): 0.166
relative viability (LC-2-ad; first compound 0.006325 µM): 0.11
relative viability (LC-2-ad; first compound 0.02 µM): 0.0967
